Laboratory results as given in patent US5977386A, “6-thio-substituted paclitaxels” (Bristol-Myers Squibb Company, priority 1997, dated 1999).
Where two headings read alike, the source gives them in different places.

Tests used:
[1] = tested on: HCT-116 human colon carcinoma cells; test: MTS cytotoxicity assay (72 h exposure); format: cell-based
Procedure: Cytoxicity was assessed in HCT-116 human colon carcinoma cells by MTS (3-(4,5-dimethylthiazol-2-yl)-5-(3-carboxymethoxyphenyl)-2-(4-sulphenyl)-2H-tetrazolium, inner salt) assay as reported in T. L. Riss, et. al., "Comparison of MTT, XTT, and a novel tetrazolium compound MTS for in vitro proliferation and chemosensitivity assays.," Mol. Biol. Cell 3 (Suppl.):184a, 1992. Cells were plated at 4,000 cell/well in 96 well microtiter plates and 24 hours later drugs were added and serial diluted. The cells were incubated at 37° for 72 hours at which time the tetrazolium dye, MTS at 333 μg/ml (final concentration), in combination with the electron coupling agent phenazine methosulfate at 25 μM (final concentration) was added. A dehydrogenase enzyme in live cells reduces the MTS to a form that absorbs light at […] which can be quantitated spectrophotometrically. The greater the absorbance the greater the number of live cells. The results are expressed as an IC50, which is the drug concentration required to inhibit cell proliferation (i.e. absorbance at 450 nm) to 50% of that of untreated control cells. The IC50 values for compounds evaluated in this assay are evaluated in Table I.
^1 Cytotoxicity was determined after a 72 h exposure by MTS assay.

M5076 murine sarcoma = test: sc M5076 murine sarcoma model, tumor growth delay; format: in vivo; conditions: sc M5076, iv on days 1, 3, 5, 7, and 9 post-implant, at optimal dose
Procedure: M5076: Taxane derivatives were tested in the M5076 murine sarcoma model using the general materials and methods described by Rose, W. C. in Anticancer Research 6: 557-562, 1986, for subcutaneous M5076 implants, with the following modifications: treatments were administered intravenously on Days 1, 3, 5, 7, and 9 post-tumor implant using eight mice per treatment and untreated control group. Activity was determined based on an increase in lifespan (as described in the preceding reference) of […], and, in particular, on a delay in tumor growth equivalent to at least 1 gross log cell kill (LCK). The latter was calculated as described in Rose, W. C. and Basler, G. A. in In Vivo 4: 391-396, 1990.
(§1) ^a Optimal dose (mg/kg/inj) if active, otherwise, maximal tolerated
(§2) dose (MTD) or highest dose tested.

M109 lung carcinoma = test: Mice M109 Model (In-Vivo), ip M109 lung carcinoma, median survival; design: species or system mouse; conditions: ip M109, Balb/c×DBA/2 F1 mice, ip injections days 5 and 8 post-implant, at optimal dose
Procedure: Balb/c×DBA/2 F1 hybrid mice were implanted intraperitoneally, as described by William Rose in Evaluation of Madison 109 Lung Carcinoma as a Model for Screening Antitumor Drugs, Cancer Treatment Reports, 65, No. 3-4 (1981), with 0.5 mL of a 2% (w/v) brei of M109 lung carcinoma.
Mice were treated with compounds under study by receiving intraperitoneal injections of various doses on days 5 and 8 post-implant. Mice were followed daily for survival until approximately 75 days post-tumor implant. One group of mice per experiment remained untreated and served as the control group.
Median survival times of compound-treated (T) mice were compared to the median survival time of the control (C) mice. The ratio of the two values for each compound-treated group of mice was multiplied by 100 and expressed as a percentage (i.e. % T/C) in the following Table II for representative compounds.
as §1, §2

[2] = Homo sapiens, HCT-116, 72 h, read-out: Cytotoxicity Assay IC50 against HCT 116 Human colon tumor cell line
[3] = Homo sapiens, HCT-116, read-out: Cytotoxicity Assay IC50 against HCT 116 Human colon tumor cell line

| Compound | IC50 ([1]; 4320 min, read-out: Cytotoxicity Assay IC50 against HCT 116 Human colon tumor cell line) | IC50 [1, 2] | Maximum T-C in LCK (gross log cell kill) (M5076 murine sarcoma) | IC50 [1, 3] | Maximum % T/C (ratio of median survival times treated/control x 100) (M109 lung carcinoma) |
| --- | --- | --- | --- | --- | --- |
| CC(=O)O[C@H]1C(=O)[C@]2(C)C[C@@H]([S+](C)[O-])[C@H]3OC[C@@]3(OC(C)=O)[C@H]2[C@H](OC(=O)c2ccccc2)[C@]2(O)C[C@H](OC(=O)[C@H](O)[C@@H](NC(=O)c3ccccc3)c3ccccc3)C(C)=C1C2(C)C (single isomer, unassigned) [Compound 19a, 7-deoxy-6β-methyl sulfoxide-paclitaxel] | > 111 nM | – | – | – | – |
| CC(=O)O[C@H]1C(=O)[C@]2(C)C[C@@H]([S+](C)[O-])[C@H]3OC[C@@]3(OC(C)=O)[C@H]2[C@H](OC(=O)c2ccccc2)[C@]2(O)C[C@H](OC(=O)[C@H](O)[C@@H](NC(=O)OC(C)(C)C)c3ccccc3)C(C)=C1C2(C)C (single isomer, unassigned) [Compound 26, 3'-NH-Boc-7-deoxy-6b-methylsulfoxidepaclitaxel] | – | 0.66 nM | – | – | – |
| CC(=O)O[C@H]1C(=O)[C@]2(C)C[C@@H]([S+]([O-])CC#N)[C@H]3OC[C@@]3(OC(C)=O)[C@H]2[C@H](OC(=O)c2ccccc2)[C@]2(O)C[C@H](OC(=O)[C@H](O)[C@@H](NC(=O)c3ccccc3)c3ccccc3)C(C)=C1C2(C)C (single isomer, unassigned) [Compound 38, 6b-cyanomethylsulfoxo-7-deoxypaclitaxel] | – | 28 nM | 0 LCK | – | – |
| CS[C@@H]1C[C@@]2(C)C(=O)[C@H](OC(C)=O)C3=C(C)[C@@H](OC(=O)[C@H](O)[C@@H](NC(=O)c4ccccc4)c4ccccc4)C[C@@](O)([C@@H](OC(=O)c4ccccc4)[C@@H]2[C@]2(OC(C)=O)CO[C@H]12)C3(C)C [Compound 9, 7-deoxy-6β-thiomethylpaclitaxel] | – | 1.1 nM | 1.1 LCK | – | – |
| CC(=O)O[C@H]1C(=O)[C@]2(C)C[C@@H](SC(C)=O)[C@H]3OC[C@@]3(OC(C)=O)[C@H]2[C@H](OC(=O)c2ccccc2)[C@]2(O)C[C@H](OC(=O)[C@H](O)[C@@H](NC(=O)c3ccccc3)c3ccccc3)C(C)=C1C2(C)C [Compound 11, 7-deoxy-6β-thioacetoxypaclitaxel] | – | 1.84 nM | 0.5 LCK | – | – |
| CC(=O)O[C@H]1C(=O)[C@]2(C)C[C@@H](S)[C@H]3OC[C@@]3(OC(C)=O)[C@H]2[C@H](OC(=O)c2ccccc2)[C@]2(O)C[C@H](OC(=O)[C@H](O)[C@@H](NC(=O)c3ccccc3)c3ccccc3)C(C)=C1C2(C)C [Compound 13, 7-deoxy-6β-thio-paclitaxel] | – | – | 0.5 LCK | 26.1 nM | – |
| CC(=O)O[C@H]1C(=O)[C@]2(C)C[C@@H](SCCO)[C@H]3OC[C@@]3(OC(C)=O)[C@H]2[C@H](OC(=O)c2ccccc2)[C@]2(O)C[C@H](OC(=O)[C@H](O)[C@@H](NC(=O)c3ccccc3)c3ccccc3)C(C)=C1C2(C)C [Compound 15, 7-deoxy-6β-(2-hydroxyethyl)thio-paclitaxel] | – | – | 0.3 LCK | 1.8 nM | – |
| CS[C@@H]1C[C@@]2(C)C(=O)[C@H](OC(C)=O)C3=C(C)[C@@H](OC(=O)[C@H](O)[C@@H](NC(=O)OC(C)(C)C)c4ccccc4)C[C@@](O)([C@@H](OC(=O)c4ccccc4)[C@@H]2[C@]2(OC(C)=O)CO[C@H]12)C3(C)C [Compound 24, 3'-NH-Boc-7-deoxy-6b-thiomethylpaclitaxel] | – | 0.2 nM | 1.2 LCK | – | – |
| CCOC(=O)N[C@@H](c1ccccc1)[C@@H](O)C(=O)O[C@H]1C[C@@]2(O)[C@@H](OC(=O)c3ccccc3)[C@@H]3[C@]4(OC(C)=O)CO[C@@H]4[C@H](SC)C[C@@]3(C)C(=O)[C@H](OC(C)=O)C(=C1C)C2(C)C [Compound 28, 3'-NH-ethylcarbonate-7-deoxy-6b-thiomethylpaclitaxel] | – | 0.7 nM | 1.1 LCK | – | – |
| CCS[C@@H]1C[C@@]2(C)C(=O)[C@H](OC(C)=O)C3=C(C)[C@@H](OC(=O)[C@H](O)[C@@H](NC(=O)c4ccccc4)c4ccccc4)C[C@@](O)([C@@H](OC(=O)c4ccccc4)[C@@H]2[C@]2(OC(C)=O)CO[C@H]12)C3(C)C [Compound 30, 7-deoxy-6b-thioethylpaclitaxel] | – | 0.9 nM | 0.4 LCK | – | – |
| CC(=O)O[C@H]1C(=O)[C@]2(C)C[C@@H](SCc3ccccc3)[C@H]3OC[C@@]3(OC(C)=O)[C@H]2[C@H](OC(=O)c2ccccc2)[C@]2(O)C[C@H](OC(=O)[C@H](O)[C@@H](NC(=O)c3ccccc3)c3ccccc3)C(C)=C1C2(C)C [Compound 32, 6-b-thiobenzyl-7-deoxypaclitaxel] | – | 5.27 nM | – | – | – |
| CC(=O)CS[C@@H]1C[C@@]2(C)C(=O)[C@H](OC(C)=O)C3=C(C)[C@@H](OC(=O)[C@H](O)[C@@H](NC(=O)c4ccccc4)c4ccccc4)C[C@@](O)([C@@H](OC(=O)c4ccccc4)[C@@H]2[C@]2(OC(C)=O)CO[C@H]12)C3(C)C [Compound 34, 6-b-thiomethyl methyl keto-7-deoxytaclitaxel] | – | 1.2 nM | – | – | 168% |
| CC(=O)O[C@H]1C(=O)[C@]2(C)C[C@@H](SCC#N)[C@H]3OC[C@@]3(OC(C)=O)[C@H]2[C@H](OC(=O)c2ccccc2)[C@]2(O)C[C@H](OC(=O)[C@H](O)[C@@H](NC(=O)c3ccccc3)c3ccccc3)C(C)=C1C2(C)C [Compound 36, 6b-thioacetonitrile-7-deoxypaclitaxel] | – | 4.4 nM | 1.1 LCK | – | – |
| COC(=O)CS[C@@H]1C[C@@]2(C)C(=O)[C@H](OC(C)=O)C3=C(C)[C@@H](OC(=O)[C@H](O)[C@@H](NC(=O)c4ccccc4)c4ccccc4)C[C@@](O)([C@@H](OC(=O)c4ccccc4)[C@@H]2[C@]2(OC(C)=O)CO[C@H]12)C3(C)C [Compound 40, 6b-thioacetyl methyl ester-7-deoxypaclitaxel] | – | 2.5 nM | – | – | 103% |
| C=CCOC(=O)CS[C@@H]1C[C@@]2(C)C(=O)[C@H](OC(C)=O)C3=C(C)[C@@H](OC(=O)[C@H](O)[C@@H](NC(=O)c4ccccc4)c4ccccc4)C[C@@](O)([C@@H](OC(=O)c4ccccc4)[C@@H]2[C@]2(OC(C)=O)CO[C@H]12)C3(C)C [Compound 42, 7-deoxy-6b-allyl thioacetatepaclitaxel] | – | 9 nM | – | – | 106% |
| CC(=O)O[C@H]1C(=O)[C@]2(C)C[C@@H](SCC(N)=O)[C@H]3OC[C@@]3(OC(C)=O)[C@H]2[C@H](OC(=O)c2ccccc2)[C@]2(O)C[C@H](OC(=O)[C@H](O)[C@@H](NC(=O)c3ccccc3)c3ccccc3)C(C)=C1C2(C)C [Compound 44, 7-deoxy-6b-thioacetamidepaclitaxel] | – | 11 nM | 0 LCK | – | – |
| CSCS[C@@H]1C[C@@]2(C)C(=O)[C@H](OC(C)=O)C3=C(C)[C@@H](OC(=O)[C@H](O)[C@@H](NC(=O)c4ccccc4)c4ccccc4)C[C@@](O)([C@@H](OC(=O)c4ccccc4)[C@@H]2[C@]2(OC(C)=O)CO[C@H]12)C3(C)C [Compound 46, 6-b-methylthiomethylthio ether-7-deoxy paclitaxel] | – | 3.5 nM | 0 LCK | – | – |
| COCS[C@@H]1C[C@@]2(C)C(=O)[C@H](OC(C)=O)C3=C(C)[C@@H](OC(=O)[C@H](O)[C@@H](NC(=O)c4ccccc4)c4ccccc4)C[C@@](O)([C@@H](OC(=O)c4ccccc4)[C@@H]2[C@]2(OC(C)=O)CO[C@H]12)C3(C)C [Compound 48] | – | 1.9 nM | 0.2 LCK | – | – |
| C=CS[C@@H]1C[C@@]2(C)C(=O)[C@H](OC(C)=O)C3=C(C)[C@@H](OC(=O)[C@H](O)[C@@H](NC(=O)c4ccccc4)c4ccccc4)C[C@@](O)([C@@H](OC(=O)c4ccccc4)[C@@H]2[C@]2(OC(C)=O)CO[C@H]12)C3(C)C [Compound 50, 6b-thioethenyl-7-deoxypaclitaxel] | – | 0.3 nM | 1.0 LCK | – | – |
